Among the data in article PMC8645336, “Benchmarking a highly selective USP30 inhibitor for enhancement of mitophagy and pexophagy” (Life Science Alliance, 2021) are remaining activity values, retold here.

The structures appear in SMILES notation.

Common to all, as to assay: biochemical
Holding throughout (set-up): Ubiquigent DUB profiler selectivity panel, remaining enzyme activity as % of control
Conditions in all cases: read-out: % of control remaining

One assay has as its target JOSD1 (Homo sapiens, UniProt Q15040). The method in brief:
(§1)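 CMPD-39 selectivity was profiled at 1-100 μM across >40 DUBs. Cellular engagement used 2 h CMPD-39 pretreatment, then HA-Ub-PA probe for 10 min at 37°C, with USP30 band shift on immunoblot. TOMM20 ubiquitylation was blotted in YFP-PRKN hTERT-RPE1 cells after 1 h antimycin A/oligomycin A (1 μM each).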

Another assay has as its target T1, USP2 (Homo sapiens, UniProt O75604).
T1 sequence (O75604 1-605): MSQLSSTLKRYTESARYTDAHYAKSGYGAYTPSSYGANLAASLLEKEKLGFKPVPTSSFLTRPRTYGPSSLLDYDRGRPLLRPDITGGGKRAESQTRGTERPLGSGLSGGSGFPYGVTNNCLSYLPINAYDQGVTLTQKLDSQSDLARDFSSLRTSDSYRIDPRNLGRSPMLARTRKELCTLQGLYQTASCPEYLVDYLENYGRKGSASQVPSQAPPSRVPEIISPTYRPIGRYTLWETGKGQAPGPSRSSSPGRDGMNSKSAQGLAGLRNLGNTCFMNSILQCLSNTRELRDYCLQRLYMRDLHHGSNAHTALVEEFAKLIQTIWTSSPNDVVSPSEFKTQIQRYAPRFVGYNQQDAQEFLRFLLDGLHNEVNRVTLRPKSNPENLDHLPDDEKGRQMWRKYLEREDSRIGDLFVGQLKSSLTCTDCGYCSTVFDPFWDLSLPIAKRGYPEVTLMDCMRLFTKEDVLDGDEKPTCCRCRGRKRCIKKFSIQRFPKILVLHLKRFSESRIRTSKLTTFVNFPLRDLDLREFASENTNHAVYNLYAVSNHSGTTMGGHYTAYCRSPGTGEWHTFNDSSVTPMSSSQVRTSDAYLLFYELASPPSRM
An outline of the steps:
as §1

A further assay has as its target T2, OTUD1 (Homo sapiens, UniProt Q5VV17).
T2 sequence (Q5VV17 1-481): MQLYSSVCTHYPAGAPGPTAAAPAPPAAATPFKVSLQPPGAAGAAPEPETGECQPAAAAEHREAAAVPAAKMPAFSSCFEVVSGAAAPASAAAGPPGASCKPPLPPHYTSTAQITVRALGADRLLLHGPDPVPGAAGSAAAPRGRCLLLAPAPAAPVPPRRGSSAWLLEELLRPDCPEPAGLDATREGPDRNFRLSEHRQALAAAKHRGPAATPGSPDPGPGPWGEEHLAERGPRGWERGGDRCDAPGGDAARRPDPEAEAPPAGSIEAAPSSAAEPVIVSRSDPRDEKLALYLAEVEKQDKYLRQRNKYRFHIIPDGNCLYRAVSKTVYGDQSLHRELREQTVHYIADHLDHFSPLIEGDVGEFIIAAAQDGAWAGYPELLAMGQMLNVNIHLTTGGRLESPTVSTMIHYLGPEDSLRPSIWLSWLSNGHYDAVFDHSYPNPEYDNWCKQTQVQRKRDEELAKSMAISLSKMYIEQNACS
An outline of the steps: as §1

For another assay, the target named is T3, AMSH-LP (Homo sapiens, UniProt Q96FJ0).
T3 construct: gene STAMBPL1
T3 sequence (Q96FJ0 1-436): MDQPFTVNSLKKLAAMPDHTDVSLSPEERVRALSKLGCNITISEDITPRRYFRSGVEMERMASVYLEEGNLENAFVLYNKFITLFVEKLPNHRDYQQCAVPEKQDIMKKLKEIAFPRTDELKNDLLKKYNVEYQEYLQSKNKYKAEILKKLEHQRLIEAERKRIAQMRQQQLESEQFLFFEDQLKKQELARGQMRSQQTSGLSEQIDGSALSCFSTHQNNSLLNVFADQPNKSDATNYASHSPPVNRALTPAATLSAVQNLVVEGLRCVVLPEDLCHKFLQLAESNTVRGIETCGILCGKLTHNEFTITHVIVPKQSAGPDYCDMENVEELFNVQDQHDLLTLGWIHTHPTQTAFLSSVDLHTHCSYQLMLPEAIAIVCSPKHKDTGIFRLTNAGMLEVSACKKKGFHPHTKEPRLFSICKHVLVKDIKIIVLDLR
An outline of the steps: as §1

On to `CC(C)(C)NS(=O)(=O)c1ccc(NC(=O)[C@H](Cc2ccccc2)NC(=O)c2ccc(F)cc2)cc1` [compound 39, CMPD-39], for which the remaining activity at 1 µM amounted to 98.1% on JOSD1, 107% on USP2, 99.9% on OTUD1 and 109% on AMSH-LP. The remaining activity at 10 µM on JOSD1 was 99.6%; at USP2, 97.7%; at OTUD1, 93.4%; at AMSH-LP it was 102%. For the same compound, the remaining activity at 100 µM turned out to be 103% on JOSD1, 101% on USP2, 98% on OTUD1 and 112% at AMSH-LP.
